Source: patent US10794932B2, “Biosensor for the detection of a biological target, and method for manufacturing the same” (The Governing Council of The University of Toronto, priority 2016, dated 2020)

Target: T1, rmTLR4/MD-2 (Mus musculus, UniProt Q9JHF9+Q9QUK6)
T1 construct: purchased
T1 sequence (Q9QUK6 26-638 limits assumed): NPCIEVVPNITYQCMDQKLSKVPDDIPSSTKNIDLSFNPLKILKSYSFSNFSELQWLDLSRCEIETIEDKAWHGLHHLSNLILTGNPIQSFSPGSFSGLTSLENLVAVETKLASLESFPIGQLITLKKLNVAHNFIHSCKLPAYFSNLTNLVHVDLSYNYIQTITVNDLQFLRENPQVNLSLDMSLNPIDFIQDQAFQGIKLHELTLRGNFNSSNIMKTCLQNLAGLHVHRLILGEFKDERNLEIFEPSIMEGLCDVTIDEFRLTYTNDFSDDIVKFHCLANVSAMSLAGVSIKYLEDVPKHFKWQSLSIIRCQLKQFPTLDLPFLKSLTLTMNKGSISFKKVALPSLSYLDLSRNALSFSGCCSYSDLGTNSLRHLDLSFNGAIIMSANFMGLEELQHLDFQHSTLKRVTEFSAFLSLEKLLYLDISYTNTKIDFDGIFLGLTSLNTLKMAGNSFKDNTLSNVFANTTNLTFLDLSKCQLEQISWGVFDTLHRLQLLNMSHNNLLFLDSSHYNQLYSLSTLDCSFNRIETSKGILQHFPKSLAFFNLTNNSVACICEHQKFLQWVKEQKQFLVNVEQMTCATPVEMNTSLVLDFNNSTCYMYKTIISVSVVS
T1 sequence (Q9JHF9 19-160): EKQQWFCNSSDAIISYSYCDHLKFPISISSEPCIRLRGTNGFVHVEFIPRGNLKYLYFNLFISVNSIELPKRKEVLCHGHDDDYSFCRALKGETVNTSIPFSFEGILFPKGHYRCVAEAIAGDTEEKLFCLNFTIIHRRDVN
Assay: Selectivity test, TLR4/MD-2 sensor, EIS
Format: binding
Details: 10 μM

Pam3CSK4 was tested, and the “electrochemical response (selectivity test)” value was “slight signal variations”.
